Source: PubChem BioAssay (NCI)
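Test compounds were applied to cells in 96-well plates for 48 hours at 5 doses. GI50 is the concentration that inhibits growth by half. TGI is the concentration that stops growth completely.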

Key:
Assay in all cases: NCI tumour cell line growth inhibition, 48 h; in the data active means GI50 below about 0.43 µM; inactive means the rest
LOX IMVI melanoma = tested on: LOX IMVI melanoma
RXF 393 renal = tested on: RXF 393 renal
SNB-19 CNS = tested on: SNB-19 CNS
SF-268 CNS = tested on: SF-268 CNS
MCF7 breast = tested on: MCF7 breast
HCT-116 colon = tested on: HCT-116 colon
NCI-H460 lung = tested on: NCI-H460 lung
HT29 colon = tested on: HT29 colon
KM12 colon = tested on: KM12 colon
SN12C renal = tested on: SN12C renal
MALME-3M melanoma = tested on: MALME-3M melanoma
OVCAR-4 ovarian = tested on: OVCAR-4 ovarian
HL-60(TB) leukemia = tested on: HL-60(TB) leukemia
NCI-H226 lung = tested on: NCI-H226 lung
T-47D breast = tested on: T-47D breast
DU-145 prostate = tested on: DU-145 prostate
NCI-H23 lung = tested on: NCI-H23 lung
SNB-75 CNS = tested on: SNB-75 CNS
K-562 leukemia = tested on: K-562 leukemia
A549 NSCLC = tested on: A549 NSCLC
SF-539 CNS = tested on: SF-539 CNS
U251 CNS = tested on: U251 CNS
SF-295 CNS = tested on: SF-295 CNS
HCT-15 colon = tested on: HCT-15 colon
IGROV1 ovarian = tested on: IGROV1 ovarian
OVCAR-8 ovarian = tested on: OVCAR-8 ovarian
HOP-62 NSCLC = tested on: HOP-62 NSCLC
SK-OV-3 ovarian = tested on: SK-OV-3 ovarian
A498 renal = tested on: A498 renal
TK-10 renal = tested on: TK-10 renal
MDA-MB-435 = tested on: MDA-MB-435
MDA-MB-231 breast = tested on: MDA-MB-231 breast
CAKI-1 renal = tested on: CAKI-1 renal
HOP-92 NSCLC = tested on: HOP-92 NSCLC
SK-MEL-5 melanoma = tested on: SK-MEL-5 melanoma
NCI-H522 lung = tested on: NCI-H522 lung
PC-3 prostate = tested on: PC-3 prostate
SK-MEL-2 melanoma = tested on: SK-MEL-2 melanoma
NCI/ADR-RES ovarian = tested on: NCI/ADR-RES ovarian
RPMI-8226 leukemia = tested on: RPMI-8226 leukemia
UACC-62 melanoma = tested on: UACC-62 melanoma
SK-MEL-28 melanoma = tested on: SK-MEL-28 melanoma
UO-31 renal = tested on: UO-31 renal
OVCAR-3 ovarian = tested on: OVCAR-3 ovarian
M14 melanoma = tested on: M14 melanoma
OVCAR-5 ovarian = tested on: OVCAR-5 ovarian
786-0 renal = tested on: 786-0 renal
SW-620 colon = tested on: SW-620 colon
HCC-2998 colon = tested on: HCC-2998 colon
UACC-257 melanoma = tested on: UACC-257 melanoma
COLO 205 colon = tested on: COLO 205 colon
EKVX NSCLC = tested on: EKVX NSCLC
ACHN renal = tested on: ACHN renal
HS 578T breast = tested on: HS 578T breast
MOLT-4 leukemia = tested on: MOLT-4 leukemia

O=c1c2[nH]ccc2nc2n1CCS2
inactive: GI50 (LOX IMVI melanoma) > 100 µM | GI50 (RXF 393 renal) > 100 µM | GI50 (SNB-19 CNS) > 100 µM | GI50 (SF-268 CNS) > 100 µM | GI50 (MCF7 breast) > 100 µM | GI50 (HCT-116 colon) > 100 µM | GI50 (NCI-H460 lung) > 100 µM | GI50 (HT29 colon) > 100 µM | GI50 (KM12 colon) > 100 µM | GI50 (SN12C renal) > 100 µM | GI50 (MALME-3M melanoma) > 100 µM | GI50 (OVCAR-4 ovarian) > 100 µM | GI50 (HL-60(TB) leukemia) 46.6 µM | GI50 (NCI-H226 lung) > 100 µM | GI50 (T-47D breast) > 100 µM | GI50 (DU-145 prostate) > 100 µM | GI50 (NCI-H23 lung) > 100 µM | GI50 (SNB-75 CNS) 33.6 µM | GI50 (K-562 leukemia) > 100 µM | GI50 (A549 NSCLC) > 100 µM | GI50 (SF-539 CNS) > 100 µM | GI50 (U251 CNS) > 100 µM | GI50 (SF-295 CNS) > 100 µM | GI50 (HCT-15 colon) > 100 µM | GI50 (IGROV1 ovarian) > 100 µM | GI50 (OVCAR-8 ovarian) > 100 µM | GI50 (HOP-62 NSCLC) > 100 µM | GI50 (SK-OV-3 ovarian) > 100 µM | GI50 (A498 renal) > 100 µM | GI50 (TK-10 renal) > 100 µM | GI50 (MDA-MB-435) > 100 µM | GI50 (MDA-MB-231 breast) > 100 µM | GI50 (CAKI-1 renal) > 100 µM | GI50 (HOP-92 NSCLC) > 100 µM | GI50 (NCI-H522 lung) > 100 µM | GI50 (PC-3 prostate) > 100 µM | GI50 (SK-MEL-2 melanoma) > 100 µM | GI50 (NCI/ADR-RES ovarian) > 100 µM | GI50 (RPMI-8226 leukemia) > 100 µM | GI50 (UACC-62 melanoma) > 100 µM | GI50 (SK-MEL-28 melanoma) > 100 µM | GI50 (UO-31 renal) > 100 µM | GI50 (OVCAR-3 ovarian) > 100 µM | GI50 (M14 melanoma) > 100 µM | GI50 (OVCAR-5 ovarian) > 100 µM | GI50 (786-0 renal) > 100 µM | GI50 (SW-620 colon) > 100 µM | GI50 (HCC-2998 colon) > 100 µM | GI50 (UACC-257 melanoma) > 100 µM | GI50 (COLO 205 colon) > 100 µM | GI50 (EKVX NSCLC) > 100 µM | GI50 (ACHN renal) > 100 µM | GI50 (HS 578T breast) > 100 µM | GI50 (MOLT-4 leukemia) > 100 µM
active: GI50 (SK-MEL-5 melanoma) 0.324 µM
> 100 µM: TGI (LOX IMVI melanoma) | TGI (RXF 393 renal) | TGI (SNB-19 CNS) | TGI (SF-268 CNS) | TGI (MCF7 breast) | TGI (HCT-116 colon) | TGI (NCI-H460 lung) | TGI (HT29 colon) | TGI (KM12 colon) | TGI (SN12C renal) | TGI (MALME-3M melanoma) | TGI (OVCAR-4 ovarian) | TGI (HL-60(TB) leukemia) | TGI (NCI-H226 lung) | TGI (T-47D breast) | TGI (DU-145 prostate) | TGI (NCI-H23 lung) | TGI (SNB-75 CNS) | TGI (K-562 leukemia) | TGI (A549 NSCLC) | TGI (SF-539 CNS) | TGI (U251 CNS) | TGI (SF-295 CNS) | TGI (HCT-15 colon) | TGI (IGROV1 ovarian) | TGI (OVCAR-8 ovarian) | TGI (HOP-62 NSCLC) | TGI (SK-OV-3 ovarian) | TGI (A498 renal) | TGI (TK-10 renal) | TGI (MDA-MB-435) | TGI (MDA-MB-231 breast) | TGI (CAKI-1 renal) | TGI (HOP-92 NSCLC) | TGI (NCI-H522 lung) | TGI (PC-3 prostate) | TGI (SK-MEL-2 melanoma) | TGI (NCI/ADR-RES ovarian) | TGI (RPMI-8226 leukemia) | TGI (UACC-62 melanoma) | TGI (SK-MEL-28 melanoma) | TGI (UO-31 renal) | TGI (OVCAR-3 ovarian) | TGI (M14 melanoma) | TGI (OVCAR-5 ovarian) | TGI (786-0 renal) | TGI (SW-620 colon) | TGI (HCC-2998 colon) | TGI (UACC-257 melanoma) | TGI (COLO 205 colon) | TGI (EKVX NSCLC) | TGI (ACHN renal) | TGI (HS 578T breast) | TGI (MOLT-4 leukemia)
0.913 µM: TGI (SK-MEL-5 melanoma)
